Experimental findings from the Deep4Chem optical property database are described below.

The nature of this series: photoluminescence quantum yield (fraction); solvent given as SMILES.

The structures appear in SMILES notation.

With `CCn1c2ccccc2c2cc(C#Cc3cc(C#Cc4ccc5c(c4)c4ccccc4n5CC)nc(C#N)n3)ccc21`, the photoluminescence quantum yield (in C1CCOC1) was 0.66; the photoluminescence quantum yield (in CCOC(C)=O) amounted to 0.68; the photoluminescence quantum yield (in CN(C)C=O) was determined as 0.21; the photoluminescence quantum yield (in Cc1ccccc1) turned out to be 0.81; the photoluminescence quantum yield (in ClCCl) was determined as 0.65.

For `COc1ccc(/C=C/C=C/C=C/c2ccc([N+](=O)[O-])cc2)cc1`, the photoluminescence quantum yield by setting is: (in C1CCOC1) 0.44; (in C1COCCO1) 0.57; (in CC1CCCCC1) 0.21; (in CC#N) 0.013; (in CO) 0.002; (in CS(C)=O) 0.03. Moreover, the photoluminescence quantum yield (in Cc1ccccc1) is 0.63, the photoluminescence quantum yield (in ClC(Cl)Cl) was determined as 0.14 and the photoluminescence quantum yield (in ClCCl) came out at 0.074.

Consider `C(=C\c1cc[n+](Cc2ccccc2)cc1)/c1cc[n+](Cc2ccccc2)cc1`, for which the photoluminescence quantum yield (in CC#N) stood at 0.0006.

`Cc1ccc(C)n1-c1ccccc1` showed a photoluminescence quantum yield (in CC#N) of 0.012 and a photoluminescence quantum yield (in CCCCCC) of 0.005.

`O=S1(=O)c2ccc(-c3ccc(N(c4ccccc4)c4ccccc4)cc3)cc2C2(c3ccccc3-c3ccccc32)c2cc(-c3ccc(N(c4ccccc4)c4ccccc4)cc3)ccc21` gave a photoluminescence quantum yield (in ClCCl) of 0.89.

`CC1=C(Br)C(C)=[N+]2C1=C(c1c(-c3ccccn3)nc3ccccn13)c1c(C)c(Br)c(C)n1[B-]2(F)F` showed a photoluminescence quantum yield (in ClCCl) of 0.0641.

Turning to `CC(=O)OC[C@H]1O[C@@H](OCC#Cc2ccc(C3=C4C(C)=CC(/C=C/c5ccc(N(C)C)cc5)=[N+]4[B-](F)(F)n4c(/C=C/c5ccc(N(C)C)cc5)cc(C)c43)cc2)[C@H](OC(C)=O)C(OC(C)=O)[C@@H]1OC(C)=O` (some centres undefined), the photoluminescence quantum yield (in CC#N) was 0.2.

In the case of `c1ccc2c(c1)ccc1ccc3c(c12)-c1c(ccc2ccc4ccccc4c12)C3`, the photoluminescence quantum yield (in ClCCl) amounted to 0.39.

The compound `COC(=O)C[C@H](Cc1c[nH]c2ccccc12)NC(=O)[C@H](CC(=O)N[C@@H](CC1=CCc2ccccc21)C(=O)OC)NC(=O)[C@H](Cc1c[nH]c2ccccc12)NC(=O)OC(C)(C)C` registered a photoluminescence quantum yield (in CC#N) of 0.26, a photoluminescence quantum yield (in CCOC(C)=O) of 0.22 and a photoluminescence quantum yield (in CO) of 0.1.

The compound `CC(C)(C)c1ccc2c(c1)c1cc(C(C)(C)C)ccc1n2-c1ccc(S(=O)(=O)c2ccc(-n3c4ccc(C(C)(C)C)cc4c4cc(C(C)(C)C)ccc43)cn2)nc1` yielded a photoluminescence quantum yield (in O=P(c1ccccc1)(c1ccccc1)c1ccc2sc3cccc(P(=O)(c4ccccc4)c4ccccc4)c3c2c1) of 0.62.

On to `CN(C)CCN(Cc1c2ccccc2cc2ccccc12)c1ccc([N+](=O)[O-])cc1[N+](=O)[O-]`, for which the photoluminescence quantum yield runs as follows: (in C1CCCCC1) 0.0001; (in C1CCOC1) 0.0004; (in CC#N) 0.0185; (in CC(C)=O) 0.0043; (in CCO) 0.0087; (in CN(C)C=O) 0.0293. Moreover, the photoluminescence quantum yield is, setting by setting: (in CO) 0.0093; (in CS(C)=O) 0.0426; (in ClC(Cl)Cl) 0.0009; (in ClCCl) 0.0057.

Turning to `CCCCCCCCCCCCCCCCCCN1C(=O)c2ccc3c4ccc5c6c(ccc(c7ccc(c2c37)C1=O)c64)C(=O)N(CCCCCCCCCCCCCCCCCC)C5=O`, for the setting “in CN(C)C=O”, the photoluminescence quantum yield was found to be 0.8.

`c1ccc(-c2nc(-c3ccc(N4c5ccccc5Sc5ccccc54)cc3)nn2-c2ccc(N3c4ccccc4Sc4ccccc43)cc2)nc1`: the photoluminescence quantum yield (in ClCCl) worked out at 0.0129.

For the setting “in ClCCl”, `CC(=O)c1ccc(C#Cc2ccc(-c3cc(N(C)C)c4ccccc4c3)cc2)cc1` returned a photoluminescence quantum yield of 0.03.

`COc1cc2c(cc1OC)C1=C[C@H](c3ccc(Cl)cc3)C3(C(C#N)=C(C#N)N1CC2)c1cc(Cl)ccc1-c1ccc(Cl)cc13`: under “in ClCCl”, the photoluminescence quantum yield is 0.00065.

As to `CC(C)(C)c1ccc(C(C)(C)C)c(N2C(=O)c3cccc4c(-c5ccc(-c6ccc([N+](=O)[O-])cc6)s5)ccc(c34)C2=O)c1`, the photoluminescence quantum yield by setting is: (in CO) 0.03; (in CS(C)=O) 0.17; (in Cc1ccccc1) 0.07.

For `FC(F)(F)c1ccc(-n2c(-c3ccc(N(c4ccc(-c5ccc(N(c6ccc(-c7nc8c9ccccc9c9ccccc9c8n7-c7ccc(C(F)(F)F)cc7)cc6)c6ccc(-c7nc8c9ccccc9c9ccccc9c8n7-c7ccc(C(F)(F)F)cc7)cc6)cc5)cc4)c4ccc(-c5nc6c7ccccc7c7ccccc7c6n5-c5ccc(C(F)(F)F)cc5)cc4)cc3)nc3c4ccccc4c4ccccc4c32)cc1`, the photoluminescence quantum yield (in ClCCl) amounted to 0.383.

Under “in ClCCl”, `CC1(C)c2ccccc2N(c2ccc(-c3nc(-c4ccccn4)n(-c4ccc(N5c6ccccc6C(C)(C)c6ccccc65)cc4)n3)cc2)c2ccccc21` registered a photoluminescence quantum yield of 0.0876.

As to `Cc1ccc(-c2c3nc(c(-c4ccc(C)cc4)c4ccc([nH]4)c(-c4ccc(OC(=O)C(C)c5ccc(Oc6ccccc6)cc5)cc4)c4nc(c(-c5ccc(C)cc5)c5ccc2[nH]5)C=C4)C=C3)cc1` (centres undefined), the photoluminescence quantum yield (in ClCCl) stood at 0.128.

For `c1ccc(-c2nc3c(c4c2-c2ccccc2CC4)-c2ccccc2CC3)cc1`, the photoluminescence quantum yield reads like this: (in C1CCOC1) 0.009; (in CC#N) 0.001; (in CCCCCC) 0.001; (in CCOC(C)=O) 0.03; (in CO) 0.002; (in CS(C)=O) 0.003. Besides, the photoluminescence quantum yield reads like this: (in Cc1ccccc1) 0.002; (in ClCCl) 0.01.

For the setting “in C1CCOC1”, `C(=C\c1cccc(/C=C/c2c3ccccc3cc3ccccc23)c1)/c1ccncc1` had a photoluminescence quantum yield of 0.6.

For the compound `O=C1NC(=O)c2ccc3c4ccc5c6c(ccc(c7ccc1c2c73)c64)C(=O)N(c1ccc(Cl)cc1)C5=O`, under “in CN(C)C=O”, the photoluminescence quantum yield came to 0.98.

`C/C(=C\c1ccccc1)c1nc2ccccc2o1`: the photoluminescence quantum yield is, setting by setting: (in C1CCCCC1) 0.007; (in CO) 0.002.

In the case of `C[Si](C)(C)[Si](C)(C)c1cccc2cc3ccccc3cc12`, the photoluminescence quantum yield is 0.38 (in C1CCCCC1) and 0.16 (in CC#N).

Under “in ClC(Cl)Cl”, `COc1ccc(-c2oc3cccc4c5c(-c6ccc(OC)cc6)/c(=N/S(=O)(=O)C(F)(F)F)oc6cccc(c2c34)c65)cc1` showed a photoluminescence quantum yield of 0.96.

Compound `CCOC(=O)c1ccc2c(c1)n(C)c1c3ccc(C(=O)OCC)cc3n(C)c21` came in with a photoluminescence quantum yield (in CCCO) of 0.53.

With `C=C(C)C(CN1C(=O)c2cccc3c2c(cc2nc(C)oc23)C1=O)OO` (centres undefined), the photoluminescence quantum yield (in CCO) came to 0.061.

`CN(C)c1ccc2c(C(=O)NCc3ccccc3)cc(C(=O)[O-])nc2c1` yielded a photoluminescence quantum yield (in CCO) of 0.013.

Where the note is “in ClCCl”, `CCOC(=O)/C=C/C1=[N+]2C(=C(c3c(C)cc(C)cc3C)c3ccc(/C=C/C(=O)OCC)n3[B-]2(F)F)C=C1` gave a photoluminescence quantum yield of 0.98.

`CC(C)(C)c1ccc(-n2c(-c3ccc(N(c4ccc(-c5ccc(N(c6ccc(-c7nc8c9ccccc9c9ccccc9c8n7-c7ccc(C(C)(C)C)cc7)cc6)c6ccc(-c7nc8c9ccccc9c9ccccc9c8n7-c7ccc(C(C)(C)C)cc7)cc6)cc5)cc4)c4ccc(-c5nc6c7ccccc7c7ccccc7c6n5-c5ccc(C(C)(C)C)cc5)cc4)cc3)nc3c4ccccc4c4ccccc4c32)cc1` displayed a photoluminescence quantum yield (in ClCCl) of 0.451.

Take `O=C(O)C1=C/C(=C/C=[N+]2/c3cc(O)c(C[C@@H]4O[C@H](CO)[C@@H](O)C(O)[C@H]4O)cc3C[C@H]2C(=O)O)C[C@H](C(=O)O)N1` (some centres undefined): the photoluminescence quantum yield amounted to 0.0015 (in CO), 0.0007 (in O), 0.0041 (in OCCO) and 0.001 (in [2H]O[2H]).
